Counter-ions that a name gives are not always drawn.
Tested on: Phospho-EGFR in H1975 cell line
Experiment: HTRF Phospo EGFR Assay (Cellular)
Assay type: cell-based
Conditions: Homo sapiens, NCI-H1975; H1975 cells, 6 hours compound incubation in starving medium, HTRF phospho-EGFR readout
Protocol: HTRF Phospo EGFR Assay (Cellular)
H1975 cell line was obtained from American Type Culture Collection (Manassas, Va., USA). Cells were maintained at 37° C., 5% CO2 in complete Media RPMI 1640 without phenol red containing 0.3 mg/ml glutamine, 100 IU/ml penicillin, and […] (Gibco) supplemented with 10% fetal bovine serum (FBS) (Gibco). Compounds were diluted into starving medium RPMI 1640 Media without phenol red containing 0.3 mg/ml glutamine, 100 IU/ml penicillin, and […] (Gibco).
Cells were cultured overnight in a 384-well white plate (8000 cells/well) using 8 μl of complete medium/well. Cells were washed two times with 20 μl of starving medium. Media was removed by tapping plates on tissue and subsequently 8 μl of fresh starving medium/well was added. Then 4 μl/well of the 3× compound solution, containing a half-log dilution series of the compound or DMSO in starving medium, were added to the cells. After 6 hours at 37° C., 5% CO2 cells were lysed by adding to the compound mix 4 μl/well of the supplemented lysis buffer, followed by incubation for 30 min at room temperature with shaking. Lysates were stored at −20° C. over night. The following day plates were thawed and 2 μl of anti-Phospho-EGFR Cryptate and 2 μl of anti-Phospho-EGFR-d2 antibody solutions prepared in the detection buffer were added. The plates were then incubated for at least 4 h at room temperature before reading the fluorescence emission at 620 and 665 nm using PHERAstar FX plate reader (BMG Labtech).

Row | SMILES | IC50
1 | O=C(Nc1ccccn1)C(c1ccccc1)n1cc2ccccc2n1 (racemic) [Example 1, (2RS)-2-Indazol-2-yl-2-phenyl-N-(2-pyridyl)acetamide] | 1760 nM
2 | O=C(Nc1nccs1)C(c1ccccc1)n1cc2ccccc2n1 (racemic) [Example 2, (2RS)-2-Indazol-2-yl-2-phenyl-N-thiazol-2-yl-acetamide] | 77 nM
3 | Nc1ccc2cn(C(C(=O)Nc3nccs3)c3ccccc3)nc2c1 (racemic) [Example 3, (2RS)-2-(6-Aminoindazol-2-yl)-2-phenyl-N-thiazol-2-yl-acetamide] | 499 nM
4 | COc1ccc2cn(C(C(=O)Nc3nccs3)c3ccccc3)nc2c1 (racemic) [Example 4, (2RS)-2-(6-Methoxyindazol-2-yl)-2-phenyl-N-thiazol-2-yl-acetamide] | 537 nM
5 | O=C(Nc1nccs1)C(c1ccccc1)n1cc2ccc(O)cc2n1 (racemic) [Example 5, (2RS)-2-(6-Hydroxyindazol-2-yl)-2-phenyl-N-thiazol-2-yl-acetamide] | 199 nM
6 | O=C(Nc1nccs1)C(c1cc(F)ccc1O)n1cc2ccccc2n1 (racemic) [Example 6, (2RS)-2-(5-Fluoro-2-hydroxy-phenyl)-2-indazol-2-yl-N-thiazol-2-yl-acetamide] | 57 nM
7 | Nc1ccc(C#Cc2ccc3cn(C(C(=O)Nc4ccccn4)c4cc(F)ccc4O)nc3c2F)cn1 (racemic) [Example 7, (2RS)-2-[6-[2-(6-Amino-3-pyridyl)ethynyl]-7-fluoro-indazol-2-yl]-2-(5-fluoro-2-hydroxy-phenyl)-N-(2-pyridyl)acetamide] | 7 nM
8 | O=C(Nc1nccs1)C(c1ccccc1)n1cc2ccc(-c3ccc(N4CCNCC4)nc3)c(Cl)c2n1 (racemic) [Example 8, (2RS)-2-[7-Chloro-6-(6-piperazin-1-yl-3-pyridyl)indazol-2-yl]-2-phenyl-N-thiazol-2-yl-acetamide] | 32 nM
9 | O=C(Nc1ccccn1)C(c1ccccc1)n1cc2ccc(-c3ccc(N4CCNCC4)nc3)c(F)c2n1 (racemic) [Example 9, (2RS)-2-[7-Fluoro-6-(6-piperazin-1-yl-3-pyridyl)indazol-2-yl]-2-phenyl-N-(2-pyridyl)acetamide] | 127 nM
10 | Nc1ccc(C#Cc2ccc3cn(C(C(=O)Nc4nccs4)c4ccccc4)nc3c2F)cn1 (racemic) [Example 11, (2RS)-2-[6-[2-(6-Amino-3-pyridyl)ethynyl]-7-fluoro-indazol-2-yl]-2-phenyl-N-thiazol-2-yl-acetamide] | 52 nM
11 | O=C(Nc1nccs1)C(c1ccccc1)n1cc2ccc(-c3ccc(N4CCNCC4)nc3)c(F)c2n1 (racemic) [Example 12, (2RS)-2-[7-Fluoro-6-(6-piperazin-1-yl-3-pyridyl)indazol-2-yl]-2-phenyl-N-thiazol-2-yl-acetamide hydrochloride] | 31 nM
12 | CCN1CCN(c2ccc(-c3ccc4cn(C(C(=O)Nc5nccs5)c5cccc(F)c5)nc4c3)cn2)CC1 (racemic) [Example 13, (2RS)-2-[6-[6-(4-Ethylpiperazin-1-yl)-3-pyridyl]indazol-2-yl]-2-(3-fluorophenyl)-N-thiazol-2-yl-acetamide] | 144 nM
13 | O=C(Nc1nccs1)C(c1cccc(F)c1)n1cc2ccc(C#Cc3cccnc3)cc2n1 (racemic) [Example 14, (2RS)-2-(3-Fluorophenyl)-2-[6-[2-(3-pyridyl)ethynyl]indazol-2-yl]-N-thiazol-2-yl-acetamide] | 22 nM
14 | O=C(Nc1nccs1)C(c1cc(F)ccc1O)n1cc2cccc(Br)c2n1 (racemic) [Example 15, (2RS)-2-(7-Bromoindazol-2-yl)-2-(5-fluoro-2-hydroxy-phenyl)-N-thiazol-2-yl-acetamide] | 1 nM
15 | O=C(Nc1nccs1)C(c1cc(F)ccc1O)n1cc2cccc(-c3ccccc3)c2n1 (racemic) [Example 16, (2RS)-2-(5-Fluoro-2-hydroxy-phenyl)-2-(7-phenylindazol-2-yl)-N-thiazol-2-yl-acetamide] | 55 nM
16 | O=C(Nc1nccs1)C(c1cc(F)ccc1O)n1cc2cccc(N3CCOCC3)c2n1 (racemic) [Example 17, (2RS)-2-(5-Fluoro-2-hydroxy-phenyl)-2-(7-morpholinoindazol-2-yl)-N-thiazol-2-yl-acetamide] | 60 nM
17 | O=C(Nc1nccs1)C(c1cc(F)ccc1O)n1cc2ccc(Br)cc2n1 (racemic) [Example 18, (2RS)-2-(6-Bromoindazol-2-yl)-2-(5-fluoro-2-hydroxy-phenyl)-N-thiazol-2-yl-acetamide] | 43 nM
18 | O=C(Nc1nccs1)C(c1cc(F)ccc1O)n1cc2ccc(-c3ccccc3)cc2n1 (racemic) [Example 19, (2RS)-2-(5-Fluoro-2-hydroxy-phenyl)-2-(6-phenylindazol-2-yl)-N-thiazol-2-yl-acetamide] | 33 nM
19 | O=C(Nc1nccs1)C(c1ccccc1)n1cc2ccc(-c3ccc(N4CCNCC4)nc3)cc2n1 (racemic) [Example 20, (2RS)-2-Phenyl-2-[6-(6-piperazin-1-yl-3-pyridyl)indazol-2-yl]-N-thiazol-2-yl-acetamide hydrochloride] | 39 nM

From patent US11708354B2, “2-benzopyrazinyl-n-heteroaryl-2-phenyl-acetamide compounds” (Hoffmann-La Roche Inc., priority 2016, dated 2023)
